From patent US10744134B2, “Pharmaceutical composition for cancer immunotherapy and/or immunological activation containing diamino heterocyclic carboxamide compound as active ingredient” (Astellas Pharma Inc., priority 2015, dated 2020)

What was measured:
[1] = test system: colon carcinoma cell line MC38; assay: Anti-tumor evaluation (in vivo) in colon carcinoma cell line MC38 cancer-bearing model (Example 1); set-up: species or system C57BL/6J mice; conditions: hemifumarate of compound A, oral, vs control group, FIG. 1
Description: Evaluation of Anti-Tumor (In Vivo) of Compound a with Respect to Colon Carcinoma Cell Line MC38 Cancer-Bearing Model
The colon cancer cell line MC38 cells (National Cancer Institute) were cultured in Dulbecco's modified Eagle's minimum essential medium (DMEM) supplemented with 10% Fetal Bovine Serum (FBS). MC38 subcutaneous cancer-bearing mice were subsequently prepared by subcutaneously transplanting MC38 cells on the back of C57BL/6J mice (female, Charles river, Japan). After confirming the engraftment of the tumor, the change in the tumor volume of each of the group (COMPOUND A 30 mg/kg bid) in which hemifumarate of the compound A, which is a test compound, dissolved in 0.5% of methyl cellulose is orally administered at a dose of 30 mg/kg (in terms of free form) twice a day for 17 days, the group (COMPOUND A 60 mg/kg qd) in which hemifumarate of the compound A is orally administered at a dose of 60 mg/kg (in terms of free form) once a day for 17 days, and the control group in which the compound A is not administered, was measured at a frequency of twice a week.

[2] = test system: colon carcinoma cell line MC38; assay: Tumor volume change in MC38 subcutaneous cancer-bearing mice (Example 2); type: in vivo, C57BL/6J mouse; conditions: hemifumarate, oral, 100 mg/kg (free form) once a day for seven days; individuals qd-2 and qd-3; measured on 4th and 7th days; FIG. 2
Description: (§1) Evaluation of Immune Activation of Compound a with Respect to Colon Carcinoma Cell Line MC38 Cancer-Bearing Model
(§2) MC38 subcutaneous cancer-bearing mice were prepared by subcutaneously transplanting MC38 cells on the back of C57BL/6J mouse (female, Charles river, Japan). After confirming the engraftment of the tumor, hemifumarate of the compound A, which is the test compound, was orally administered to seven mice at a dose of 100 mg/kg (in terms of free form) once a day for seven days. As a control, 0.5% of methylcellulose was also orally administered to seven mice at the same dose of 100 mg/kg once a day for seven days, which was the same administration as the group administered at a 100 mg/kg. After measuring the tumor volume change on the 4th and 7th days, spleens and tumors were collected from a total of six mice of three examples (control-1, control-2, and control-3) extracted from the control group and three examples extracted from the compound A administered groups (COMPOUND A 100 mg/kg qd-1, COMPOUND A 100 mg/kg qd-2, and COMPOUND A 100 mg/kg qd-3). Then, staining was performed with anti CD3 antibody (eBioscience), anti CD4 antibody (Biolegend), anti CD8 antibody (eBioscienec), anti CD45 antibody (Biolegend), and the number of positive cells of each antigen was measured using a flow cytometer (BD FACS Verse).

CD4+ and CD8+ T cells = assay: Immune activation: flow cytometry of CD4+ and CD8+ T cells in spleen and tumor of MC38 cancer-bearing mice (Example 2); type: in vivo, C57BL/6J mouse; conditions: 100 mg/kg qd oral for seven days
Description: as §1, §2

malignant melanoma = conditions: first-line, malignant melanoma patients; cited from earlier work

Row | Molecule | tumor volume ([1]; 30 mg/kg (free form) twice a day for 17 days) | tumor volume ([1]; 60 mg/kg (free form) once a day for 17 days) | tumor volume [2] | proportion of the number of CD8+ cells in CD45+ and CD3+ cells in a tumor (CD4+ and CD8+ T cells; individuals qd-2 and qd-3 in which tumor growth was suppressed, FIG. 5) | proportion of the number of CD4+ cells in CD45+ and CD3+ cells in spleen (CD4+ and CD8+ T cells; three mice vs three controls, FIG. 3) | proportion of the number of CD8+ cells in CD45+ and CD3+ cells in spleen (CD4+ and CD8+ T cells; three mice vs three controls, FIG. 4) | overall survival extended, share of the nivolumab group (malignant melanoma) [%]
1 | CCc1nc(C(N)=O)c(Nc2ccc(N3CCC(N4CCN(C)CC4)CC3)c(OC)c2)nc1NC1CCOCC1 [compound A, 6-ethyl-3-({3-methoxy-4-[4-(4-methylpiperazin-1-yl)piperidin-1-yl]phenyl}amino)-5-(tetrahydro-2H-pyran-4-ylamino)pyrazine-2-carboxamide] | strong effect of suppressing the increase in the tumor volume | strong effect of suppressing the increase in the tumor volume | the increase in the tumor volume was hardly observed | the increase of the number of CD8+ cells was observed | the increase in the number of CD4+ cells and CD8+ cells in spleen was observed | the increase in the number of CD4+ cells and CD8+ cells in spleen was observed | 
2 | nivolumab: anti-PD-1 antibody marketed as a therapeutic agent for malignant melanoma and non-small cell lung cancer |  |  |  |  |  |  | 72.9
